Results reported in ChEMBL document CHEMBL6087427, “Discovery of novel cyclopentane carboxylic acids as potent and selective inhibitors of NaV1.7” (Bioorg Med Chem Lett, 2025).
In brackets after ≈: the same amount, converted by molar mass.

How the values were obtained:
[1] = target: T1, Sodium channel protein type 9 subunit alpha (Homo sapiens, UniProt Q15858); assay: Displacement of [3H]GX-545 from Nav1.7 VSD4 (unknown origin)
Target sequence in this assay (Q15858 whole entry): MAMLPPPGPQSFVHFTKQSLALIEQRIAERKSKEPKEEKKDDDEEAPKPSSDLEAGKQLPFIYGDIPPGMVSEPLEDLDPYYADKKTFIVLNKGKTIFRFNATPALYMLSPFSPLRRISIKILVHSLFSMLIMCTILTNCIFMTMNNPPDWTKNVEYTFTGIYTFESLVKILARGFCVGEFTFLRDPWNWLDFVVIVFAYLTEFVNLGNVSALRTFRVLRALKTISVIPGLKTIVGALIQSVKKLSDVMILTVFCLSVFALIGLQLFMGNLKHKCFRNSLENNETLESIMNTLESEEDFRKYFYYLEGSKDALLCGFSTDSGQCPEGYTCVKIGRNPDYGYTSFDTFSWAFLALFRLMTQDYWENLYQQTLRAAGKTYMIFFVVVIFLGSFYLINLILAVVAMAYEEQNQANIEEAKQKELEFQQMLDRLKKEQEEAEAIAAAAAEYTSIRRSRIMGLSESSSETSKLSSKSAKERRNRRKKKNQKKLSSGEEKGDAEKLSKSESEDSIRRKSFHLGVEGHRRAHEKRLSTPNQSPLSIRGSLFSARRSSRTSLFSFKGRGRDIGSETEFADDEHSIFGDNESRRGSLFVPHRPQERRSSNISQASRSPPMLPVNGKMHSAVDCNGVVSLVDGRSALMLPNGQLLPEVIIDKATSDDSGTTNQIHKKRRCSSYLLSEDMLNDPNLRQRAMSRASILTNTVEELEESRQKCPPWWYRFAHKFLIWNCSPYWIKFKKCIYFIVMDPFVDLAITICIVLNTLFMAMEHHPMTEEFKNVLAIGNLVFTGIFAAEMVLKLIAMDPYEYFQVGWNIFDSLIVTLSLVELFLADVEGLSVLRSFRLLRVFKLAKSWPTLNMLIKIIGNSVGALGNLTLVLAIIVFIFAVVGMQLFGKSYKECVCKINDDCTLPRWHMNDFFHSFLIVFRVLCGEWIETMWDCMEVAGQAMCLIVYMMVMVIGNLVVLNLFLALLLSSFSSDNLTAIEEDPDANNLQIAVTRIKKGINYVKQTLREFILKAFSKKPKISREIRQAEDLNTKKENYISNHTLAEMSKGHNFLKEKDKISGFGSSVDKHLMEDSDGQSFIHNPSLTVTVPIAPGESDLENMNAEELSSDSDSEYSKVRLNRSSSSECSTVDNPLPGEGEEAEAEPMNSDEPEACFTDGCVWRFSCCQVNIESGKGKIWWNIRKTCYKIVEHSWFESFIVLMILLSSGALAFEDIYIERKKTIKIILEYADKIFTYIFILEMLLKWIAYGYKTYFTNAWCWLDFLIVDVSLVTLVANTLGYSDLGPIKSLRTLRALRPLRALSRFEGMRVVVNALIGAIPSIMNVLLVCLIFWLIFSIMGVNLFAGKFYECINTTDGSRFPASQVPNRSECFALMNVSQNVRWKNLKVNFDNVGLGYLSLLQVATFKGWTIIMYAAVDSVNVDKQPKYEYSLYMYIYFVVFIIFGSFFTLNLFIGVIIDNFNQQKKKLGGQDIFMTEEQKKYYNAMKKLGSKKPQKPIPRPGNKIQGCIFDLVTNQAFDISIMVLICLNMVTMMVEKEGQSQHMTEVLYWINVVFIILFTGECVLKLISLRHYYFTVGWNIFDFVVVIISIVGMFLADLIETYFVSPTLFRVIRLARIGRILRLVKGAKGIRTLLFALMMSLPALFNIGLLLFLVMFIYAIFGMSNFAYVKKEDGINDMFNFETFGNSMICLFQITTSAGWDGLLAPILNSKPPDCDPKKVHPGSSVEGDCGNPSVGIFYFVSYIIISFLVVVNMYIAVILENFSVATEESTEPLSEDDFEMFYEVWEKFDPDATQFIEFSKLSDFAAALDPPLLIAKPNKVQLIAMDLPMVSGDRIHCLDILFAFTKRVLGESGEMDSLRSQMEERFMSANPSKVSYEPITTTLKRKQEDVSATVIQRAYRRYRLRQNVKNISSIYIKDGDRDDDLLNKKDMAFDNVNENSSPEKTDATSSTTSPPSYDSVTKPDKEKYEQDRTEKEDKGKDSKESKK

[2] = target: T1, Sodium channel protein type 9 subunit alpha; assay: Inhibition of human Nav1.7 by patch clamp electrophysiology
Target sequence in this assay (Q15858 whole entry): as above

[3] = target: T1, Sodium channel protein type 9 subunit alpha; assay: Inhibition of human Nav1.7 by sodium flux assay
Target sequence in this assay (Q15858 whole entry): as above

[4] = target: T1, Sodium channel protein type 9 subunit alpha; assay: Inhibition of human Nav1.7 assessed as fold shift in IC50 in presence of BSA by sodium flux assay
Target sequence in this assay (Q15858 whole entry, looked up): as the sequence (Q15858 whole entry) above

[5] = Metabolic stability in human liver microsomes assessed as hepatic clearance; format: ADME, Microsome
[6] = Metabolic stability in mouse liver microsomes assessed as hepatic clearance; format: ADME, Microsome
[7] = AUC in mouse at 3 mg/kg, po; format: ADME, organism-based; conditions: in vivo
[8] = target: Sodium channel protein type 5 subunit alpha (Homo sapiens, UniProt Q14524); assay: Inhibition of human Nav1.5 by patch clamp electrophysiology
[9] = target: Sodium channel protein type 1 subunit alpha (Homo sapiens, UniProt P35498); assay: Inhibition of human Nav1.1 by patch clamp electrophysiology
[10] = target: Sodium channel protein type 2 subunit alpha (Homo sapiens, UniProt Q99250); assay: Inhibition of human Nav1.2 by patch clamp electrophysiology
[11] = target: Sodium channel protein type 8 subunit alpha (Homo sapiens, UniProt Q9UQD0); assay: Inhibition of human Nav1.6 by patch clamp electrophysiology
[12] = Metabolic stability in human hepatocytes assessed as hepatic clearance; format: ADME, cell-based, Hepatocyte
[13] = Metabolic stability in mouse hepatocytes assessed as hepatic clearance; format: ADME, cell-based, Hepatocyte
[14] = Apparent permeability across apical to basolateral side in MDCK cells; format: ADME, cell-based, Canis lupus familiaris; conditions: dog
[15] = system: MDR1 (P-gp); assay: Efflux ratio in MDCK-MDR1 cells; format: ADME, cell-based, Canis lupus familiaris; conditions: dog
[16] = system: BCRP; assay: Efflux ratio in MDCK-BCRP cells; format: ADME, cell-based, Canis lupus familiaris; conditions: dog
[17] = Plasma protein binding in human; format: ADME, cell-free; conditions: read-out: PPB
[18] = Plasma protein binding in mouse; format: ADME, cell-free; conditions: read-out: PPB
[19] = target: T2, Cytochrome P450 1A2 (Homo sapiens, UniProt P05177); assay: Inhibition of CYP1A2 (unknown origin); format: ADME
T2 sequence (P05177 whole entry): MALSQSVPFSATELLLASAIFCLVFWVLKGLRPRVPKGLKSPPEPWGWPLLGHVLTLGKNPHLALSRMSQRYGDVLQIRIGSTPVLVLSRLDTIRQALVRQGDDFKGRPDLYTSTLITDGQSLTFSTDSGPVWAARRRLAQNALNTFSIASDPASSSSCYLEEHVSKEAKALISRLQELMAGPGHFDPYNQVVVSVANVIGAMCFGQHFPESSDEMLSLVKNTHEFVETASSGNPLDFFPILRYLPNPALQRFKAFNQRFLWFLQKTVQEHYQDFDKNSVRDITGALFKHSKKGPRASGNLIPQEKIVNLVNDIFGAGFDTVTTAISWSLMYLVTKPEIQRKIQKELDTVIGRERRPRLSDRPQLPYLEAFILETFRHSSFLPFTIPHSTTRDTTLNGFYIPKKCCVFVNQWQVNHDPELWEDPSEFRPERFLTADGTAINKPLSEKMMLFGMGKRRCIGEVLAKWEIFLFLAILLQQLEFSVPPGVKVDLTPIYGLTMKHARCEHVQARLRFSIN

[20] = target: Cytochrome P450 2C19 (Homo sapiens, UniProt P33261); assay: Inhibition of CYP2C19 (unknown origin); format: ADME
[21] = target: Cytochrome P450 2C9 (Homo sapiens, UniProt P11712); assay: Inhibition of CYP2C9 (unknown origin); format: ADME
[22] = target: Cytochrome P450 2D6 (Homo sapiens, UniProt P10635); assay: Inhibition of CYP2D6 (unknown origin); format: ADME
[23] = target: Cytochrome P450 3A4 (Homo sapiens, UniProt P08684); assay: Inhibition of CYP3A4 (unknown origin); format: ADME
[24] = Kinetic solubility of compound; format: physicochemical; conditions: read-out: Kinetic_solubility
[25] = Volume of distribution at steady state in mouse at 1 mg/kg, iv; format: ADME, organism-based; conditions: in vivo, read-out: Vdss
[26] = Half life in mouse at 1 mg/kg, iv; format: ADME, organism-based; conditions: in vivo
[27] = Cmax in mouse at 3 mg/kg, po; format: ADME, organism-based; conditions: in vivo
[28] = Half life in mouse at 3 mg/kg, po; format: ADME, organism-based; conditions: in vivo
[29] = Oral bioavailability in mouse at 3 mg/kg; format: ADME, organism-based; conditions: in vivo
[30] = system: Mus musculus; assay: Analgesic activity in aconitine-induced nociception in IEM transgenic FVB mouse model assessed as reduction in pain response at 3 mg/kg, po pretreated for 2 hrs followed by aconitine administration measured for 30 mins post-aconitine dose relative to control; format: functional; parameters: scale not given: the % may be the effect or the level left; conditions: time 2.5 hrs
[31] = system: Mus musculus; assay: Analgesic activity in aconitine-induced nociception in IEM transgenic FVB mouse model assessed as reduction in pain response at 10 mg/kg, po pretreated for 2 hrs followed by aconitine administration measured for 30 mins post-aconitine dose relative to control; format: functional; parameters: scale not given: the % may be the effect or the level left; conditions: time 2.5 hrs
[32] = system: Mus musculus; assay: Analgesic activity in aconitine-induced nociception in IEM transgenic FVB mouse model assessed as reduction in pain response at 30 mg/kg, po pretreated for 2 hrs followed by aconitine administration measured for 30 mins post-aconitine dose relative to control; format: functional; parameters: scale not given: the % may be the effect or the level left; conditions: time 2.5 hrs
[33] = system: Mus musculus; assay: Analgesic activity in aconitine-induced nociception in IEM transgenic FVB mouse model assessed as reduction in pain response at 100 mg/kg, po pretreated for 2 hrs followed by aconitine administration measured for 30 mins post-aconitine dose relative to control; format: functional; parameters: scale not given: the % may be the effect or the level left; conditions: time 2.5 hrs
[34] = Drug concentration in plasma of aconitine-induced nociception in IEM transgenic FVB mouse model at 3 mg/kg, po pretreated for 2 hrs followed by aconitine administration measured for 30 mins post-aconitine dose; format: ADME, organism-based
[35] = Drug concentration in plasma of aconitine-induced nociception in IEM transgenic FVB mouse model at 10 mg/kg, po pretreated for 2 hrs followed by aconitine administration measured for 30 mins post-aconitine dose; format: ADME, organism-based
[36] = Drug concentration in plasma of aconitine-induced nociception in IEM transgenic FVB mouse model at 30 mg/kg, po pretreated for 2 hrs followed by aconitine administration measured for 30 mins post-aconitine dose; format: ADME, organism-based
[37] = Drug concentration in plasma of aconitine-induced nociception in IEM transgenic FVB mouse model at 100 mg/kg, po pretreated for 2 hrs followed by aconitine administration measured for 30 mins post-aconitine dose; format: ADME, organism-based
[38] = system: Mus musculus; assay: Analgesic activity in aconitine-induced nociception in IEM transgenic FVB mouse model assessed as inhibition of nociceptive behaviour at 3 to 100 mg/kg, po pretreated for 2 hrs followed by aconitine administration measured for 30 mins post-aconitine dose; format: functional, organism-based
[39] = Drug concentration in brain of aconitine-induced nociception in IEM transgenic FVB mouse model at EC50 pretreated orally for 2 hrs followed by aconitine administration measured for 30 mins post-aconitine dose; format: ADME, tissue-based; conditions: route po, read-out: Ct
[40] = Ratio of drug concentration in brain to plasma of aconitine-induced nociception in IEM transgenic FVB mouse model at EC50 pretreated orally for 2 hrs followed by aconitine administration measured for 30 mins post-aconitine dose; format: ADME; conditions: route po, read-out: BPR

Chain of Cytochrome P450 3A4 (P08684 whole entry): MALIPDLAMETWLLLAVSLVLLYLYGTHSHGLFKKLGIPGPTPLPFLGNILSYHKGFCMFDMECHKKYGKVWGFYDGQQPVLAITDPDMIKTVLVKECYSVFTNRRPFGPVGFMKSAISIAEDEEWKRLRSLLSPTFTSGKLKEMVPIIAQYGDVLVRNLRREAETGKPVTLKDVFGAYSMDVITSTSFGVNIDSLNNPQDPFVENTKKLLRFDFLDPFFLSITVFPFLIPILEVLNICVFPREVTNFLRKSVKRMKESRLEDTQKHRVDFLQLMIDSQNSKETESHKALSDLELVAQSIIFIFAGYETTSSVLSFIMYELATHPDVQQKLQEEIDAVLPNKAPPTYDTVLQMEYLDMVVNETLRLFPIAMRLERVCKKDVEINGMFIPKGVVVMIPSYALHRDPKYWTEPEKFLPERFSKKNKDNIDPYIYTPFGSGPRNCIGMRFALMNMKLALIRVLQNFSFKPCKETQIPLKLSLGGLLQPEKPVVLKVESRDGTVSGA
Chain of Cytochrome P450 2C9 (P11712 whole entry): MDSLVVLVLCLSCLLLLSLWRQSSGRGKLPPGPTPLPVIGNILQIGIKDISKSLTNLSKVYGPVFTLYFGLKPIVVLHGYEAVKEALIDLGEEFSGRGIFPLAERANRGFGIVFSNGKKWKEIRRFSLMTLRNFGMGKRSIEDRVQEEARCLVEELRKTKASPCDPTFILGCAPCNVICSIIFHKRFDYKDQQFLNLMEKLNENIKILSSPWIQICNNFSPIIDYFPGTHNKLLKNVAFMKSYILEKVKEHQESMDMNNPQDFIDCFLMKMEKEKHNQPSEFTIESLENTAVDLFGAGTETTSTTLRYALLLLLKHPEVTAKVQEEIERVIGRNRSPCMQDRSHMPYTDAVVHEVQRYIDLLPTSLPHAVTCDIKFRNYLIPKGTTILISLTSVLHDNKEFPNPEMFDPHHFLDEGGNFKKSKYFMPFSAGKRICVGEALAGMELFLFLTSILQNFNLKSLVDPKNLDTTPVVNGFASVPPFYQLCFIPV
Chain of Sodium channel protein type 5 subunit alpha (Q14524 whole entry): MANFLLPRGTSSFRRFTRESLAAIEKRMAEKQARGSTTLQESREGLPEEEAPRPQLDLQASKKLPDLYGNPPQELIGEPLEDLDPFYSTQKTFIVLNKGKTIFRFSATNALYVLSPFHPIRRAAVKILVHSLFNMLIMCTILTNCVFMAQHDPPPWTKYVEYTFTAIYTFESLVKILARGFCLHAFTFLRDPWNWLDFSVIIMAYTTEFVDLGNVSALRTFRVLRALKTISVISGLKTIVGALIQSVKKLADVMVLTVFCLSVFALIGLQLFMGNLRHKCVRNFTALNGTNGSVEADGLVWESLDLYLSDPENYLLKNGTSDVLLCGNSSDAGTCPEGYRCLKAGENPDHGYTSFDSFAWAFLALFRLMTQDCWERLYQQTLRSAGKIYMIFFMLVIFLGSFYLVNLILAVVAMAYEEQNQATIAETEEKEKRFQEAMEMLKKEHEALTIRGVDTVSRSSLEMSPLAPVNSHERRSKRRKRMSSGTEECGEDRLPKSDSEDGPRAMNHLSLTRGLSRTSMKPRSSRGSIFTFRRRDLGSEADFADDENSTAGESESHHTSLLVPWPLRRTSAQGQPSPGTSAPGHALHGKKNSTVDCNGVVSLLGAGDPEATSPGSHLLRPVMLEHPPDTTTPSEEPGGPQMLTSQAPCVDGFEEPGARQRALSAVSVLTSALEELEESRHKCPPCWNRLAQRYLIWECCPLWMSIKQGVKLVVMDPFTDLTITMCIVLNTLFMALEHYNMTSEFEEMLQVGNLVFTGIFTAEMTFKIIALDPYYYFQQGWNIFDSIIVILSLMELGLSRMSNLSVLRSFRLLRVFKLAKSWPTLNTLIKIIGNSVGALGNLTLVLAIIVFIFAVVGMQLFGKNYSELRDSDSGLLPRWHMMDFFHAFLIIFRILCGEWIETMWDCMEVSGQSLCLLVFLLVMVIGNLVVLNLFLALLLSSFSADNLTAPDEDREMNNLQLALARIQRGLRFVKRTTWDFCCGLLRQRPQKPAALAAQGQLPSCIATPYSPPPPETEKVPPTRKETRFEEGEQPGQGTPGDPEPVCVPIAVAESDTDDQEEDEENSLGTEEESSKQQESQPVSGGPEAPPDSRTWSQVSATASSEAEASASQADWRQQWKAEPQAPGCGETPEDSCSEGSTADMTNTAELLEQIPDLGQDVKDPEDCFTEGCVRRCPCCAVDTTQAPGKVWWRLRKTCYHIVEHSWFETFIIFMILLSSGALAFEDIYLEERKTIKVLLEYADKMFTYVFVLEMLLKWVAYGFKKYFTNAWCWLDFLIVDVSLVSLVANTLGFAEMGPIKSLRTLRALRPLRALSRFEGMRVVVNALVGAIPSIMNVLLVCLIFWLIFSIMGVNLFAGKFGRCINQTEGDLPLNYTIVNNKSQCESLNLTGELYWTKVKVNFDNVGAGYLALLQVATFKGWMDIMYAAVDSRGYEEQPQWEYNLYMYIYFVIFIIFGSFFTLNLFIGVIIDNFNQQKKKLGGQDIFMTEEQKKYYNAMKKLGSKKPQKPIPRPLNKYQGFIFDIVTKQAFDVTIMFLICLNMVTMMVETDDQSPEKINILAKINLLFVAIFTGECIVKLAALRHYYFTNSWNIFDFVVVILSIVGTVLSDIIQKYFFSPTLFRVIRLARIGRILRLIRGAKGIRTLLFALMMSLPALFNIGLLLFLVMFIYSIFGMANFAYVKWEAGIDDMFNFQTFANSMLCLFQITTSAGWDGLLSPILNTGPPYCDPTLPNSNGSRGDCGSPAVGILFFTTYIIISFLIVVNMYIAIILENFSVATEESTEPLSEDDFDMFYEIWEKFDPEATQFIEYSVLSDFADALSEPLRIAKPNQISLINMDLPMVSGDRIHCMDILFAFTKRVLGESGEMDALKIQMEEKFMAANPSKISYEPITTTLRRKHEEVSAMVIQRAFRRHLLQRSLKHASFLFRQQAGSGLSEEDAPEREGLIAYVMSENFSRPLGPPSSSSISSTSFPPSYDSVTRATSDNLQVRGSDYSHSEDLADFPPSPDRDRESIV

Work on `N#C[C@@H]1C[C@@H](C(=O)O)N(C(=O)c2cc(C3CC3)c(OCC34CC5CC(CC(C5)C3)C4)cc2F)C1` yielded a Ki [1] of 0.12 µM.
`O=C(O)[C@@H]1C2CC(C2)N1C(=O)c1cc(C2CC2)c(OCC23CC4CC(CC(C4)C2)C3)cc1F` showed a Ki [1] of 0.19 µM.
`C[C@H]1C[C@@H](C(=O)O)N(C(=O)c2cc(C3CC3)c(OCC34CC5CC(CC(C5)C3)C4)cc2F)C1` showed a Ki [1] of 0.049 µM.
`CC1(C)CCN(C(=O)c2cc(C3CC3)c(OCC34CC5CC(CC(C5)C3)C4)cc2F)[C@@H]1C(=O)O` gave a Ki [1] of 0.058 µM.
For `O=C(O)[C@@H]1[C@H](O)CCN1C(=O)c1cc(C2CC2)c(OCC23CC4CC(CC(C4)C2)C3)cc1F`, the Ki [1] was 0.16 µM.
In the case of `O=C(O)[C@@H]1C[C@H](O)CN1C(=O)c1cc(C2CC2)c(OCC23CC4CC(CC(C4)C2)C3)cc1F`, the Ki [1] is reported as 0.15 µM.
In the case of `O=C(O)[C@@H]1C[C@@H](F)CN1C(=O)c1cc(C2CC2)c(OCC23CC4CC(CC(C4)C2)C3)cc1F`, the Ki [1] is reported as 0.007 µM.
Work on `O=C(O)[C@@H]1C[C@@H](O)CN1C(=O)c1cc(C2CC2)c(OCC23CC4CC(CC(C4)C2)C3)cc1F` yielded a Ki [1] of 0.39 µM.
With `O=C(O)[C@@H]1[C@@H](O)CCN1C(=O)c1cc(C2CC2)c(OCC23CC4CC(CC(C4)C2)C3)cc1F` the Ki [1] was 0.6 µM.
For `CO[C@@H]1CN(C(=O)c2cc(C3CC3)c(OCC34CC5CC(CC(C5)C3)C4)cc2F)[C@H](C(=O)O)[C@H]1C`, the Ki [1] was 0.036 µM.
`O=C(O)[C@@H]1CCCN1C(=O)c1cc(C2CC2)c(OCC23CC4CC(CC(C4)C2)C3)cc1F` gave a Ki [1] of 0.02 µM, an IC50 [2] of 0.033 µM and an IC50 [3] of 0.18 µM. It also gave a fold change (FC) [4] of 2.2, a CLhep predicted [5] of 0.66 L/h/kg and a CLhep predicted [6] of 3.66 L/h/kg. It also gave an AUC ([7]; read-out: AUC) of 79 nM·h.
Compound `C[C@@H]1[C@@H](C(=O)O)[C@H](C(=O)c2cc(C3CC3)c(OCC3CCN(Cc4c(Cl)cccc4Cl)CC3)cc2F)C[C@@H]1F` has a Ki [1] of 0.0049 µM, an IC50 [2] of 0.013 µM and an IC50 [8] of 5.9 µM. For the same compound, the IC50 [3] was 0.099 µM, the CLhep predicted [5] was 0.66 L/h/kg and the CLhep predicted [6] was 3.06 L/h/kg. The AUC ([7]; po, 3 mg/kg) was 9600 nM·h, the IC50 [9] was 0.025 µM and the IC50 [10] was 0.015 µM. The IC50 [11] was 0.3 µM, the CLhep predicted [12] was 0.372 L/h/kg and the CLhep predicted [13] was 1.26 L/h/kg. For the same compound, the Papp A→B [14] was 190 nm/s, the efflux ratio [15] was 2.8 and the efflux ratio [16] was 0.92. The fraction unbound [17] was 0.0001, the fraction unbound [18] was 0.0001 and the IC50 [19] was greater than 10 µM. The IC50 [20] was greater than 10 µM, the IC50 [21] was greater than 10 µM and the IC50 [22] was greater than 10 µM. For the same compound, the IC50 [23] was greater than 10 µM, the solubility kinetic [24] was 58 µM (≈ 33.7 µg/mL) and the Vd [25] was 0.94 L/kg. For the same compound, the half-life [26] was 1.2 h, the Cmax [27] was 1.5 µM and the half-life [28] was 3.6 h. For the same compound, the F [29] was 45%, the Activity [30] was 35% and the Activity [31] was 81%. It also gave an Activity [32] of 96%, an Activity [33] of 100% and a concentration at 2.5 h [34] of 1.77 µM. It also gave a concentration at 2.5 h [35] of 7.29 µM, a concentration at 2.5 h [36] of 20.8 µM and a concentration at 2.5 h [37] of 50.9 µM. It also gave an EC50 [38] of 2.72 µM, a concentration at 2.5 h [39] of 0.33 µM and a Kp at 2.5 h [40] of roughly 0.12.
`O=C(O)[C@@H]1CC(F)(F)CN1C(=O)c1cc(C2CC2)c(OCC23CC4CC(CC(C4)C2)C3)cc1F` showed a Ki [1] of 0.035 µM.
